Laboratory results reported in patent US20100104546A1, “MODULATORS OF ANTIGEN-DEPENDENT T CELL PROLIFERATION” (CHILDREN, YOUTH AND WOMEN'S HEALTH SERVICE, priority 2007, published 2010).

How the values were obtained:
[1] = tested on: splenocytes; assay: Tetanus toxoid (TT)-induced ex vivo lymphocyte proliferation after administration to TT-immunized mice; details: 10, 40 and 80 mg/kg i.p. in mouse serum, spleens removed 2 h later
Description: Mice were immunized with SRBC. After 5 days they were given β-thia-21:3n-3 at the indicated doses i.p. After 2 hours the spleens were removed and processed into single cell suppressions. These were then cultured in the presence (□), or absence of (▪) of SRBC to assess the proliferation. The results are expressed as mean±SEM of 3 experiments. (B) Effect of β-oxa-21:3n-3 on tetanus toxoid (TT)-induced ex vivo lymphocyte responses. Mice were immunized with TT subcutaneously and after 7 days were given β-oxa-21:3n-3 in mouse serum, intraperitoneally. Two hours later the spleen removed, single cell suspension prepared and examined for lymphoproliferation responses to TT in 5 day cultures. The results are expressed as mean±SEM of 3 experiments.
6-7 weeks old Balb/c mice were injected subcutaneously with 100 μl of 10% sheep red blood cells (IMVS, Inc., Adelaide, Australia) After 5 days 100 ul of β-oxa-21:3n-3 at indicated amounts were injected intraperitoneally, intravenously or gavaged orally. […] Cells were washed with RPMI-1640 containing 10% fetal bovine serum, 10 mM Hepes, antibiotics and glutamine (RPMI-10) and counted using an automated Cell-Dyne 3500R (Abbott, Inc. MA) instrument. […] Cells were harvested and thymidine incorporation was determined using a beta scintillation counter. […]

[2] = tested on: Human PBMC; assay: Human lymphocyte proliferation assay, antigen (tetanus toxoid)-induced; type: cell-based
Description: Peripheral blood mononuclear cells were purified from the blood of normal volunteers using hypagn-ficoll density gradient separation. In the assay 100 μl of PBM (treated or untreated) at a concentration of 2×10^6/ml were stimulated by the addition of 100 μl of PHA (μg/ml) or […] 2 μg/ml TT in microtitre plates. The cultures contained 5% human blood group AB serum. The cells were incubated at 37° C. in 5% CO2-air and high humidity for 72 h or 5 days (for TT). The cultures were pulsed with 1 μl of 3H-TdR 6 h prior to harvest. The amount of radioactivity incorporated was determined to assess the degree of lymphoproliferation.
To attempt to resolve this discrepancy, we examined the sensitivity of the antigen-induced (tetanus toxoid) human lymphocyte response in vitro, under the same conditions as those in which the PHA-induced response were inhibited by β-oxa21:3n-3. Human PBMC which were known to show lymphoproliferation in response to TT were pretreated with a range of concentrations of β-oxa21:3n-3 and then stimulated with TT. Proliferation was quantitated after […] of incubation of cultures. […] Using purified human T cells which were stimulated with PHA-PMA we were able to ascertain that when β-oxa21:3n-3 was added to cells the stimulated cells contained 30 fold more β-oxa-21:3n-3 than resting T cells (FIG. 5B).

[3] = tested on: human lymphocytes; assay: Human lymphocyte proliferation assay, mitogen (PHA)-induced; type: cell-based; details: PHA-stimulated human lymphocytes, in vitro; read-out: IC50 for the PHA-stimulated response
[4] = tested on: circulating cytokine levels; assay: Circulating cytokine levels in SRBC-sensitized mice after intravenous SRBC challenge; type: in vivo; details: serum, 80 mg/kg IP, 6 h after IV SRBC
Description: Mice were injected subcutaneously with SRBC. After 5 days β-oxa-21:3n-3 (80 mg/kg) or vehicle (whole mouse serum) were injected intraperitoneally. 2 hours later SRBC were injected intravenously. The blood was collected from orbital plexus at 6 hours post intravenous SRBC injection. Serum was separated and frozen immediately at −70° C. The levels of cytokine were measured using BD mouse CBA kits using a BD Array instrument (BD, La Jolla, Calif.).
The insights from these cytokine studies prompted us to investigate whether injected β-oxa-21:3n-3 could regulate cytokine levels in vivo. The β-oxa-21:3n-3- or vehicle-administered pre-immune animals were challenged intravenously with SRBC; after 6 h the serum prepared from the mouse blood and cytokine levels measured.

[5] = tested on: Th1 and Th2 cytokines; assay: Cytokine levels of mitogen-stimulated splenocytes, ex vivo; type: in vivo, mice; details: 3 days
Description: Mice were sensitized with SRBC and after 5 days were injected with β-oxa-21:3n-3 or vehicle intraperitoneally. After 2 h spleens were removed, cell suspensions prepared and incubated in the presence of mitogens PHA/PMA or PMA/A23187. After 3 days of incubation, the culture fluids and were harvested and used to determine the levels of Th1 and Th2 cytokines. Baseline subtracted levels of cytokines plotted in the presence of vehicle or β-oxa-21:3n-3. The values represent the mean±SEM separate experiments each conducted in quintuplets.
6-7 weeks old Balb/c mice were injected subcutaneously with 100 μl of 10% sheep red blood cells (IMVS, Inc., Adelaide, Australia) After 5 days 100 ul of β-oxa-21:3n-3 at indicated amounts were injected intraperitoneally, intravenously or gavaged orally. In another experimental set up mice were given β-tha-21:3n-3 i.p. In a third approach mice were infected subcutaneously with 100 μl of Tetanus Toxoid (2,500 Lf/ml). Then 7 days later were given β-oxa-21:3n-3. At indicated time points mice were sacrificed and spleens were removed. Single cell suspensions were prepared and white blood cells (WBC) were enriched by passing through Ficoll-Paque Plus (GE Healthcare). Cells were washed with RPMI-1640 containing 10% fetal bovine serum, 10 mM Hepes, antibiotics and glutamine (RPMI-10) and counted using an automated Cell-Dyne 3500R (Abbott, Inc. MA) instrument. Cells were viable (>98%) as judged by trypan blue exclusion. (β-oxa-21:3n-3)- or vehicle-treated mouse samples (200,000/well) were mixed either with SRBC (600,000/well) with 100 μl of Tetanus toxoid (50 Lf/ml) or phytohaemaglutinin (PHA) (2 μg/ml) or with PHA plus phorbol myristate acetate (PMA) (10 ng/ml) or with PMA plus calcium ionophore A23187 ([…]). Cells were cultured in 96 well U bottom plates (Nunc, Inc. Denmark) for 3 days (except for TT −5 days) at 37° C. under humidified air containing 5% CO2. At some instances 50 μl of supernatants were transferred to a new plate and frozen immediately at −70° C. to be used for cytokine measurements. Thymidine (50 μl, 1 μCi/well) was added at final 16 hours of culture. Cells were harvested and thymidine incorporation was determined using a beta scintillation counter.
To determine whether or not these effects were due to non-specific suppression of the immune system, we examined the production of Th1 and Th2 cytokines in mitogen-activated mononuclear leukocytes. Splenocytes from (β-oxa-21:3n-3)- or vehicle-administered pre-immune animals were cultured for 3 days in the presence of PHA-PMA or PMA-A23187. The cell culture fluids were collected and cytokines measured.

[6] = tested on: circulating cytokine levels; assay: Circulating cytokine levels in SRBC-sensitized mice after intravenous SRBC challenge; type: in vivo; details: serum, 80 mg/kg IP, 6 h after IV SRBC; ELISA

CC/C=C\C/C=C\C/C=C\CCCCCCCCOCC(=O)O [β-oxa-21:3n-3]
lymphoproliferation in response to TT [1]: capable of inhibiting the response
sensitivity of antigen-induced response relative to mitogenic response ([2]; TT versus PHA IC50): 15 fold
IC50 ([2]; tetanus toxoid-stimulated human PBMC, in vitro, read-out: IC50 for the inhibition of the antigen-induced response): 2 µM
IC50 [3]: 30 µM
IFNγ conc [4]: 229 ± 40 pg/mL
IL-2 conc [4]: 73 ± 10 pg/mL
IL-4 conc [4]: 3.5 ± 2 pg/mL
IL-5 conc [4]: 120 ± 21 pg/mL
IL-6 conc [4]: 35 ± 8 pg/mL
IL-10 conc [4]: 9 ± 5 pg/mL
IL-12 conc [4]: 320 ± 145 pg/mL
IL-13 conc [4]: 0 ± 0 pg/mL
KC conc [4]: 61 ± 21 pg/mL
MCP-1 conc [4]: 2039 ± 457 pg/mL
TNFα conc [4]: 15 ± 3 pg/mL
IL-2 secretion ([5]; PHA-PMA-stimulated splenocytes): higher levels
levels of IL-4, IL-5, TNFα and IFNγ ([5]; PHA-PMA-stimulated splenocytes): no substantial increase
IFNγ secretion ([5]; PMA-A23187-stimulated splenocytes): reduction
cytokine secretion ([5]; PMA-A23187-stimulated splenocytes, apart from IFNγ): did not result in any substantial differences
TGFβ conc [6]: (52 ± 6) × 10^3 pg/ml
